The source made the active and inactive calls.
Assays:
Vero = assay: cells; type: functional; conditions: Chlorocebus sabaeus
[1] = loss of viability in HepG2 cells – cell-based, CellTiter-Glo, cherry-picked, cytotoxicity control for Shn3 inhibitor project, dose response (AID 624134); type: functional
[2] = reduction of Shn3 3'UTR-driven luciferase in osteoblasts – cell-based, Clone20 osteoblasts, firefly luciferase, cherry-picked, dose response (AID 624132); type: functional;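 note: firefly luciferase luminescence from reporter carrying the Shn3 3'UTR in osteoblasts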
[3] = non-specific 3'UTR reporter inhibition in Clone20-Shn3RL – cell-based, Renilla luciferase, cherry-picked, counter-screen for Shn3 inhibitor project, dose response (AID 624133); type: functional
Genome polyprotein = Genome polyprotein (dengue virus type 2, UniProt P29990); assay: flavivirus cap methylation enzyme inhibition – biochemical, confirmation dose response, primary screen (AID 588689); type: functional
[4] = target: FAD-linked sulfhydryl oxidase ALR (Homo sapiens, UniProt P55789); assay: ALR-catalysed DTT oxidation blockers – biochemical, H2O2 detection, luminescence, cherry-pick, dose response (AID 493248)
[5] = target: T1, Carboxy-terminal domain RNA polymerase II polypeptide A small phosphatase 1 (Homo sapiens, UniProt Q9GZU7); assay: CTDSP1 inhibitors, concentration-response, biochemical, absorbance readout, ultra-high-throughput screen actives (AID 540297); type: functional
T1 sequence (Q9GZU7 whole entry): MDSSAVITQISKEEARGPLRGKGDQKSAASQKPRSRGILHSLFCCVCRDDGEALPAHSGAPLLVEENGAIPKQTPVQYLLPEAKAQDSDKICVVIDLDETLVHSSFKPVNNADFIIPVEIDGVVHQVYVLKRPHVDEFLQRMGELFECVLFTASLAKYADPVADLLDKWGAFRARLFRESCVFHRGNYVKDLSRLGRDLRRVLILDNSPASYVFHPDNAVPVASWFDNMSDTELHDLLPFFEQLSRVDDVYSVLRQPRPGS

[6] = target: T2, Rac GTPase-activating protein 1 (Homo sapiens, UniProt Q9H0H5); assay: blockers of MgcRacGAP-driven Rac1 GTP hydrolysis – biochemical, ADP Hunter fluorescence, primary and confirmatory, confirmation (AID 624330); type: functional
T2 sequence (Q9H0H5 whole entry): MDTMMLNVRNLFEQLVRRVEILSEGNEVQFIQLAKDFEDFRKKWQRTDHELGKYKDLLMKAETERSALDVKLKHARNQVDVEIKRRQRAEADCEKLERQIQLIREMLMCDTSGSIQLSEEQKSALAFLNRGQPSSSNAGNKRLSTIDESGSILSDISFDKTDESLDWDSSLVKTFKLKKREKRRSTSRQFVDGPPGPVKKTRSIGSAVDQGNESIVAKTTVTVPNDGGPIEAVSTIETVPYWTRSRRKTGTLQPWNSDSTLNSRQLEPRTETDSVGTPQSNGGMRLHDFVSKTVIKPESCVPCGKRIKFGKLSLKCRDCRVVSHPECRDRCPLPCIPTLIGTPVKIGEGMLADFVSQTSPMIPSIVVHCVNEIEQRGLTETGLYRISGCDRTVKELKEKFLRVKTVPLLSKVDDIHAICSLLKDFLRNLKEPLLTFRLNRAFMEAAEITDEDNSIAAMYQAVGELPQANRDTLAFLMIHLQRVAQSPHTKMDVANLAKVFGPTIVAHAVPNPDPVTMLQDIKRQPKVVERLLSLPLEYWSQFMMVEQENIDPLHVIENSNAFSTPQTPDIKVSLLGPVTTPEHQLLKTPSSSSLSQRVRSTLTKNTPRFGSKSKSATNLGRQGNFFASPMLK

[7] = target: T3, RNA-binding protein pos-1 (Caenorhabditis elegans, UniProt G5EF15); assay: disruptors of C. elegans POS-1 RNA interaction – biochemical, fluorescence polarization, dose response (AID 1964);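 note: purified POS-1 fused to maltose binding protein made in E. coli; potency of compounds blocking POS-1 binding to fluorescent RNA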
T3 sequence (G5EF15 whole entry): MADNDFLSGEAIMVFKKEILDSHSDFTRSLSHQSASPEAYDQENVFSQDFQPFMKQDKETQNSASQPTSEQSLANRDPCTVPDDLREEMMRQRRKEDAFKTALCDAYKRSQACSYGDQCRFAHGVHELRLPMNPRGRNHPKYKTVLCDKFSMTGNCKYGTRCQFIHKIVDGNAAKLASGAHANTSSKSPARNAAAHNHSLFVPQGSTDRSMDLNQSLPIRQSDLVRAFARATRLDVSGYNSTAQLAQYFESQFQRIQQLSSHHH

Nonstructural protein 1 = Nonstructural protein 1 (Influenza A virus, UniProt Q194T2); type: functional, Influenza A virus (A/California/07/2009(H1N1))
[8] = target: T4, Heat shock factor protein 1 (Mus musculus, UniProt P38532); assay: decrease of HSF1-responsive luciferase luminescence – cell-based, NIH3T3, dose retest, confirmation (AID 2382); type: functional;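 note: NIH3T3 fibroblasts with HSF1-driven luciferase reporter stressed by proteasome inhibitor MG132; luminescence from HSF1-driven luciferase expression after 8 hours of MG132 stress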
T4 sequence (P38532 whole entry): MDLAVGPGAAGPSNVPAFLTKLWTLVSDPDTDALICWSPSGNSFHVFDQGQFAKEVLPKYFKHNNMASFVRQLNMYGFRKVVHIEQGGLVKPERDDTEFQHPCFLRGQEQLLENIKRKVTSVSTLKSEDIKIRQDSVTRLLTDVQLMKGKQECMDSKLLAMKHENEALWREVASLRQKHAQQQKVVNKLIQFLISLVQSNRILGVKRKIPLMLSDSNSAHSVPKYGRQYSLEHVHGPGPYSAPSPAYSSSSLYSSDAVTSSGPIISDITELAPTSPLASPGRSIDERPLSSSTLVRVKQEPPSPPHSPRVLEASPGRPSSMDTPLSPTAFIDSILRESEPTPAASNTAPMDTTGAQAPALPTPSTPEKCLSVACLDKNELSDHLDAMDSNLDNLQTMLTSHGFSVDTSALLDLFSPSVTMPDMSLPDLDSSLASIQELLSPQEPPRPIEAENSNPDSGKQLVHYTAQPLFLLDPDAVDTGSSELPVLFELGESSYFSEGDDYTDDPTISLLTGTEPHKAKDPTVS

[9] = viability of PTEN-deleted HCT116 cells – cell-based, HCT116 PTEN knockout, dose response (AID 1047); type: functional;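 note: HCT116 colon tumor cells with PTEN knocked out; cells exposed to compound for 60 hours before readout; potency for loss of cell viability measured by luminescence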
[10] = target: T5, Replicative DNA helicase DnaB (Mycobacterium tuberculosis, UniProt P9WMR3); assay: DnaB intein splicing inhibitors, dose response, biochemical, cell-free fluorescence (AID 449749); type: functional
T5 sequence (P9WMR3 whole entry): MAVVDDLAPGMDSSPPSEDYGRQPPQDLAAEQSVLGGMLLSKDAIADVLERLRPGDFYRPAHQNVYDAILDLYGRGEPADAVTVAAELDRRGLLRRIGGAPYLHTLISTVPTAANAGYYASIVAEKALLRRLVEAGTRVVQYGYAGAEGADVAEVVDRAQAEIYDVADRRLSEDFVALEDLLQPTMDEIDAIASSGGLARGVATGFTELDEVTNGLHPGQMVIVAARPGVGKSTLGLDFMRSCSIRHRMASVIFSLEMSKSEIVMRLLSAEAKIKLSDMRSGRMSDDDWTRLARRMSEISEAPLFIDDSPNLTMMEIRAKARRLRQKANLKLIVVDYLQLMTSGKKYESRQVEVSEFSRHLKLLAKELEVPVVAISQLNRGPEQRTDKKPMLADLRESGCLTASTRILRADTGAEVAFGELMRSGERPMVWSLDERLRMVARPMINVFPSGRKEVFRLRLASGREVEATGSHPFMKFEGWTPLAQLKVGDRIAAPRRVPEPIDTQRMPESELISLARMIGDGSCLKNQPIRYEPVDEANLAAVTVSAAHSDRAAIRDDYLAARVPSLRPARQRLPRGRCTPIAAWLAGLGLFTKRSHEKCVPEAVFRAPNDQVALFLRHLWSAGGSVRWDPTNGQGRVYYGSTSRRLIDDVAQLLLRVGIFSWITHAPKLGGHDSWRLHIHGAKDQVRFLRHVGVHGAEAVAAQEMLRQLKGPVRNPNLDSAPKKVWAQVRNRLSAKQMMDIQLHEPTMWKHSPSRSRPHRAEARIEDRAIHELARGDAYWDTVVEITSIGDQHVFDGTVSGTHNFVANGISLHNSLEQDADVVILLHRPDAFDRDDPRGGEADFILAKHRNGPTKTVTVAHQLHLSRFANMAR

Protein RecA = target: T6, Protein RecA (Mycobacterium tuberculosis, UniProt P9WHJ3); assay: Fluorescence Cell-Free Homogeneous Dose Retest to Identify Inhibitors of RecA-Intein Splicing Activity. [Related pubchem assays (depositor defined):AID2097, AID2223, AID489010, AID492950]; type: functional
T6 sequence (P9WHJ3 whole entry): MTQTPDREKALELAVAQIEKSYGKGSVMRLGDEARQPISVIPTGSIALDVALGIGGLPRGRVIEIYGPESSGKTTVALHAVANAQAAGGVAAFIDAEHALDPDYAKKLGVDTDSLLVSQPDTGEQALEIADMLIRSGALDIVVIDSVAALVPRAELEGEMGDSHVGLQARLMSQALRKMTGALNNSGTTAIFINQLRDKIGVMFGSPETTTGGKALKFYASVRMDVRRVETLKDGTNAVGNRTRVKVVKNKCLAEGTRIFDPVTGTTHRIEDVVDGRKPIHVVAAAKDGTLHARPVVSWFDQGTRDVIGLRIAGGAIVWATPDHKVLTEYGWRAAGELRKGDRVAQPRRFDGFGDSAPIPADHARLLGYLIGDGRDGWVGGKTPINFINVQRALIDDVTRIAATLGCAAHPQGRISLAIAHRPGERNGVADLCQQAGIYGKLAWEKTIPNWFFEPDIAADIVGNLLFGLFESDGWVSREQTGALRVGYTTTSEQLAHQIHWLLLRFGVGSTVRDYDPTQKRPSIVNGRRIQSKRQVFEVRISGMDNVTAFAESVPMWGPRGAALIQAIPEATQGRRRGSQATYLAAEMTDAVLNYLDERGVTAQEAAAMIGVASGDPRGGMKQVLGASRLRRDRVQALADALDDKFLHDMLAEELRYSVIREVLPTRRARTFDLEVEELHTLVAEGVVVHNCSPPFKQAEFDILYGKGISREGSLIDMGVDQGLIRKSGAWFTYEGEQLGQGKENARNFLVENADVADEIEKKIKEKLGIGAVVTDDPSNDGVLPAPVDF

Chain of Genome polyprotein (P29990 2492-3391 limits assumed): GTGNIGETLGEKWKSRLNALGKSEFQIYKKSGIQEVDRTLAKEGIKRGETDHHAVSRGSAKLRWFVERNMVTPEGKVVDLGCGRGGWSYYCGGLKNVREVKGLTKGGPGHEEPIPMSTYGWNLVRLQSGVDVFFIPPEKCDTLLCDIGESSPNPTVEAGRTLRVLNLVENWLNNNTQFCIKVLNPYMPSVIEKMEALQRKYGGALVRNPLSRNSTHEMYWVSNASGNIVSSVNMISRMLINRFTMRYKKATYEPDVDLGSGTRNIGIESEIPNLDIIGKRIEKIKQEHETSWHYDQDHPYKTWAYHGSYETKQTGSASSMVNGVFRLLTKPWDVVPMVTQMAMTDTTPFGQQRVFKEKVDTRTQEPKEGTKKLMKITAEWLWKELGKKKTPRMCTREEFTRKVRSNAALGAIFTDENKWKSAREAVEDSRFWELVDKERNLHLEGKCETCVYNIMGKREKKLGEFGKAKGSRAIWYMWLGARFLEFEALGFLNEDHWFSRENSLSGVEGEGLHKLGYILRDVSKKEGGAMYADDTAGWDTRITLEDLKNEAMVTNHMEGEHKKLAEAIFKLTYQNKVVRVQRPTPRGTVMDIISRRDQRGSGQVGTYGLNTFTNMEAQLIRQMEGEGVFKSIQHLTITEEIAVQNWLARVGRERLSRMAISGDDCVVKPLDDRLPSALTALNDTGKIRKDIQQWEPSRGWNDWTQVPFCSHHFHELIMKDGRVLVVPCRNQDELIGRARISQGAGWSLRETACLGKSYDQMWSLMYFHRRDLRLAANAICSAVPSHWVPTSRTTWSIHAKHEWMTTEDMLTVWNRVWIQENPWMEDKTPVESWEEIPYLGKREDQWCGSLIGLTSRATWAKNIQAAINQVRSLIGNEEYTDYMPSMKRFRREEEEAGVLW
Chain of Nonstructural protein 1 (Q194T2 whole entry): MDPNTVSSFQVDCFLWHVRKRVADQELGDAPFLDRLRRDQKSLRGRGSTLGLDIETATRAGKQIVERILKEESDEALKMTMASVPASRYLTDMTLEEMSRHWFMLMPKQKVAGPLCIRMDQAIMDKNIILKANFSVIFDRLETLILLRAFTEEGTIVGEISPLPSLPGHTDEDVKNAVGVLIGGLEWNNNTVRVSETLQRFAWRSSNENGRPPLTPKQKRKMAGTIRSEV
Chain of FAD-linked sulfhydryl oxidase ALR (P55789 whole entry, the tested form may be a part): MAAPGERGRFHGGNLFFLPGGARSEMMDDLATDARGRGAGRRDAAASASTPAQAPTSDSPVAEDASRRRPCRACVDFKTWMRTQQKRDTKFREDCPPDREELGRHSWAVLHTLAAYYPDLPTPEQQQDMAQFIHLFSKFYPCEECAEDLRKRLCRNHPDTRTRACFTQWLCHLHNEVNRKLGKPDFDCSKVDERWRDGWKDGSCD

CC(=Nc1ccccc1)C1=C(O)C(Cc2ccc(O)cc2)NC1=O (stereo not drawn)
CC50 (Vero): 0.98 µM (active)

Cc1cc(NNC(=O)c2cccc(C(F)(F)F)c2)nc2c1c(C)nn2C
AC50 [1]: 57 µM (active) | AC50 [2]: 2.43 µM (active) | AC50 [3]: 3.61 µM (active)

COc1cc(C(C2C(=O)CC(C)(C)CC2=O)C2C(=O)CC(C)(C)CC2=O)cc(OC)c1OC
IC50 (Genome polyprotein): 87.7 µM (active)

Cc1nn(Cc2cccc(C(=O)NC3CCCCC3)c2)c(C)c1Cl
CC50 (Vero): > 25 µM (active)

CC1CC/C(=N/Nc2ccccc2)C(=O)N1 (stereo not drawn)
AC50 [4]: 0.623 µM (active)

C/C=C\C=C\C(=O)N1CC2(CC(c3cccc(NC(=O)CC)c3)=NO2)C[C@H]1C(N)=O (stereo partly drawn)
IC50 [5]: 7.57 µM (active)

O=C1CC(NNc2ccccc2)C(=O)N1c1cccc(Cl)c1 (stereo not drawn)
AC50 [4]: 0.319 µM (active)

Cc1noc(-c2ccc(Cl)cc2)c1C(=O)ON=C(N)c1ccc(C(C)(C)C)cc1
CC50 (Vero): 18.8 µM (active)

CS(=O)(=O)C1=NN2C(=N)/C(=C\c3ccc(OCCOc4ccccc4)cc3)C(=O)N=C2S1
IC50 [5]: 6.76 µM (active)

Oc1ccc(/C=N/Nc2[nH]cnc3ncnc2-3)cc1
IC50 [6]: 11.6 µM (active) | EC50 [7]: > 300 µM (not active)

Cc1c(CCC(=O)N[C@@H](C)C(=O)O)c(=O)oc2c(C)c3oc4c(c3cc12)CCCC4
AC50 [4]: 3.72 µM (active)

CCOC(=O)C1(C)C(N=Nc2cccc(Cl)c2)=C(O)C(=O)N1c1ccccc1 (stereo not drawn)
IC50 (Genome polyprotein): 18.4 µM (active)

Oc1ccc2ccccc2c1N=Nc1ccc(F)cc1
IC50 (Nonstructural protein 1): 16.2 µM (active)

CCc1ccc(-c2csc3[n+]2CCN3C(C)=O)cc1
AC50 [4]: 3.62 µM (active)

Cc1c(NS(=O)(=O)c2cc(C(=O)NCCN(C)C)ccc2Cl)c(=O)n(-c2ccccc2)n1C
IC50 [5]: 9.93 µM (active) | EC50 [8]: > 195 µM (not active)

O=C(N/N=C/C1C(=O)NC(=S)N(c2ccccc2)C1=O)c1cc(Br)c(O)c(Br)c1 (stereo not drawn)
IC50 (Nonstructural protein 1): 10.5 µM (active)

COc1ccc(CSC2=NCCN2)cc1Br
AC50 [4]: 0.007 µM (active)

NC(=NO)c1ccc(NC(=O)c2ccc(Br)o2)cc1
AC50 [4]: 0.16 µM (active)

N#CCC(=O)Nc1sc2c(c1C(N)=O)CCCC2
AC50 [4]: 14.4 µM (active)

Cc1ccc(C)c(N2CCN(C(=O)CCS(=O)(=O)c3ccc4c(c3)NC(=O)C(C)S4)CC2)c1 (stereo not drawn)
AC50 [1]: 4.58 µM (active) | AC50 [2]: 4.47 µM (active) | AC50 [3]: 8.6 µM (active)

CCN1CCN(c2cc(C)c3cc(NC(=O)c4ccc5c(c4)OCO5)ccc3n2)CC1
CC50 (Vero): > 25 µM (active) | EC50 [9]: 25.1 µM (active)

CN(C)C(=O)c1ccc(NC(=O)c2cc(-c3ccco3)nc3ccccc23)cc1
IC50 [5]: 7.55 µM (active)

COc1ccccc1/C=C1/C(=O)N(c2ccccc2)N=C1C
AC50 [10]: 96.6 µM (active) | EC50 (Protein RecA): 0.0356 µM (active) | IC50 (Genome polyprotein): 90.2 µM (active) | IC50 [6]: 119 µM (active)

CC(Sc1nc2ccccc2c(=O)n1C)C(=O)Nc1ccc2c(c1)OCCO2 (stereo not drawn)
AC50 [1]: > 70 µM (inactive) | AC50 [2]: 1.94 µM (active) | AC50 [3]: 9.21 µM (active)

Cc1ccn(CC(=O)N/N=C/c2cc([N+](=O)[O-])ccc2O)n1
IC50 (Nonstructural protein 1): 7.07 µM (active)

N#C/C(=C\c1ccccc1[N+](=O)[O-])c1nc(C2CC2)cs1
IC50 (Nonstructural protein 1): 75.1 µM (active)

CCN(CC)CCNc1nc(-c2ccc(OC)cc2)c(-c2ccc(OC)cc2)s1
CC50 (Vero): > 25 µM (active)

O=C(CCC1N=C2c3ccccc3N=C(SCC(=O)NCc3ccco3)N2C1=O)NCc1ccco1 (stereo not drawn)
IC50 [5]: 5.31 µM (active)

Cc1cc2c(s1)Nc1ccccc1N=C2N1CCN(C)CC1 [OLANZAPINE]
AC50 [4]: 0.369 µM (active)

Nc1ccc(NC(=O)c2ccco2)c(Cl)c1
AC50 [4]: 1.72 µM (active)

CC(C(=O)Nc1ccc(S(N)(=O)=O)cc1)N1CCc2ccccc21 (stereo not drawn)
AC50 [4]: 1.8 µM (active)

— ChEMBL document CHEMBL1201862, “PubChem BioAssay data set” (2004)
